Test results as given in patent publication US20260240842A1, “METHODS TO PREVENT THERAPY RESISTANCE IN MELANOMA VIA BLOCKING GENOMIC INSTABILITY” (THE REGENTS OF THE UNIVERSITY OF CALIFORNIA, priority 2022, published 2026).

Experiments:
[1] = test system: KRAS^G12C NSCLC cell lines (H358, H2122); assay: Long-term clonogenic growth, acquired MAPKi resistance in NSCLC cell lines; format: cell-based, human; settings: combined with MAPKi; FIG. 6G to 6J
Excerpt: (§1) FIGS. 6A-6J. DNA-PKi co-treatment prevents acquired MAPKi-resistance in KRAS^G12 human pancreatic ductal adenocarcinoma and non-small cell lung carcinoma cell lines. FIGS. 6A to 6J: Long-term clonogenic growth of PDAC (MIAPaCa-2, XWR200) (6A to 6F) or NSCLC (H358, H2122) (6G to 6J) cell lines showing acquired-resistant colonies to MEKi alone, type II RAFi+MEKi, or KRAS G12Ci+MEKi and their suppression by indicated co-treatments with DNA-PKi (NU7026) and/or PARPi (ABT888) at indicated concentrations. Top, representative cultures; bottom, quantifications over n=4 fields (mean±SD). Data representative of 2 independent repeats. Seeding densities (cells/well in 6-well dishes) and culture durations: MIAPaCa-2 (10,000; 30 days for 6A-6C), XWR200 (150,000; 23 days for 6D, 30 days for 6E, 26 days for 6F), H358 (40,000; 14 days for 6G, 29 days for 6H, 26 days for 6I), H2122 (20,000, 22 days for 6J). […]
(§2) For clonogenic assay, cells were plated at indicated cell densities in six-well plates and treated with inhibitor(s) the next day. […] Formazan was then dissolved in 100 μL DMSO, and the absorbance values were measured using an ELISA reader (SpectraMax Plus 384) at the wavelength of 570 nm, blanked with DMSO solution. […]

[2] = test system: KRAS^G12C PDAC cell lines (MIAPaCa-2, XWR200); assay: Long-term clonogenic growth, acquired MAPKi resistance in PDAC cell lines; format: cell-based, human; settings: combined with MAPKi (type II RAFi+MEKi or KRAS G12Ci+MEKi); FIG. 6A to 6F
Excerpt: as §1, §2

| Compound | suppression of acquired MAPKi resistance, number of NSCLC cell lines [1] | suppression of acquired MAPKi resistance, number of PDAC cell lines [2] |
| --- | --- | --- |
| O=c1cc(N2CCOCC2)oc2c1ccc1ccccc12 [NU7026] | one of two | two of two |
| C[C@]1(c2nc3c(C(N)=O)cccc3[nH]2)CCCN1 [ABT888, veliparib] | generally ineffective | generally ineffective |
